Data on 16 molecules can be found in patent US5468756A, “Imidazonaphthyridine derivatives” (Kyowa Hakko Kogyo Co., Ltd., priority 1990, dated 1995).

SMILES strings stand for the structures.

In data set [1] the test system is passive Schultz-Dale reaction. In words: Effect on passive Schultz-Dale reaction (broncho-dilative activity), sensitized tracheal strips contracted by antigen. More on the design: species or system male Hartley guinea pigs. Conditions: guinea pig tracheal zig-zag strips, 37° C., antigen egg white albumin 1 μg/ml; read-out: Passive Schultz-Dale reaction IC50 (concentration of 50% relaxation rate). Here is the method: d) Effect on passive Schultz-Dale reaction (broncho-dilative activity)
Male Hartley guinea pigs weighing 350 to 500 g were passively sensitized by intraperitoneal injection of rabbit anti-OA serum prepared in advance by the method of Koda et al. [Folia Pharmacol., Japon 66, 237, (1970)]. After 24 hours, the guinea pigs were stunned and exsanguinated, and then tracheae were removed. The zig-zag strips of the tracheae were prepared by the method of Emmerson and Mackay [J. Pharm. Pharmacol., 31, 798, (1979)]. The strips were suspended in Krebs-Henseleit solution at 37° C. under aeration of a mixed gas of 95% oxygen and 5% carbon dioxide, and equilibrated for one hour. Then, antigen (egg white albumin) was introduced in the solution (final concentration; 1 μg/ml), and the contraction was measured by isotonictransducer (TD-112s, made by Nihon Kohden K.K., Japan) and recorded on a recorder (Type 3066, made by Yokogawa-Hokushin Denki, K.K. Japan). After the contraction curves reached a plateau, the test compounds were successively added in order to get cumulative concentration-relaxation curves. The concentration of 50% relaxation rate (IC50) was calculated from the regression line, which was obtained from the cumulative concentration-relaxation curves.

In data set [2] the test system is carrageenin-induced paw edema. In words: Effect on carrageenin-induced paw edema. The conditions noted are these: Rattus norvegicus, 3 hours after carrageenin, read-out: Suppression rate for paw swelling, carrageenin-induced edema; for inhibition in vivo at 100 mg/kg: p.o.; for inhibition in vivo at 50 mg/kg: po, 50 mg/kg P.O. Format: in vivo, male Wistar rats. Here is the method: a) Effect on carrageenin-induced paw edema
(§1) Male Wistar rats weighing 150 to 160 g (n=3-5) were used in the experiment. After the right hind paw volume was measured with the plethysmograph (TK-101; Unicom Co., Ltd.), the test compound (25, 50 or 100 mg/kg) was orally administered. After one hour, 0.1 ml of 1% carrageenin (λ-carrageenin; PICNIN-A®, Zushi Kagaku Co., Ltd.) was subcutaneously injected into the right hind paw footpad. Three hours after the injection of carrageenin, the right hind paw volume was measured and the swelling rate was determined by the following equation 1. [formula] Vt: the right hind paw volume measured 3 hours after the injection of carrageenin
(§2) Vo: the right hind paw volume measured prior to the injection of carrageenin
(§3) The suppression rate was calculated by the following equation 2. [formula] Swt: the swelling rate of the group administered with the test compound Swc: the swelling rate of the control group administered with physiological saline solution
A general note: In the carrageenan paw model, swelling and tenderness develop within hours.

The subject of data set [3] is zymosan-induced paw edema. The data set is described as follows: Effect on zymosan-induced paw edema. It is filed as in vivo, male Wistar rats. The conditions noted are these: Rattus norvegicus, po, read-out: Suppression rate for paw swelling, zymosan-induced edema; for inhibition in vivo at 25 mg/kg: 25 mg/kg P.O. Here is the method:
as §1, §2, §3
b) Effect on zymosan-induced paw edema
The experiment was carried out in the same manner as in the carrageenin-induced paw edema test except that 1% zymosan (Zymosan A®; Sigma Chemical Co.) was used in place of 1% carrageenin and the right hind paw volume was measured […] the injection of the edema-inducing substance instead of 3 hours. The swelling rate and the suppression rate were calculated by equation 1 and equation 2, respectively.

In data set [4] the test system is ddY strain male mice. The data set is described as follows: Acute toxicity (Minimum Lethal Dose). It is filed as in vivo. How it is done: The test compound was orally and intraperitoneally administered to ddY strain male mice weighing 20 to 25 g. MLD (Minimum Lethal Dose) was determined by observing the mortality for […] after the administration.
Data set [5] deals with platelet activating factor (PAF)-induced mortality. In words: Inhibition effect on platelet activating factor (PAF)-induced mortality. The conditions noted are these: Mus musculus, po, PAF 40 μg/kg i.v., 3 h, read-out: Survival rate of test compound-administered group; for responders at 100 mg/kg: n = 10, control group survival 0-20%. It is filed as in vivo, male dd mice. Here is the method:
e) Inhibition effect on platelet activating factor (PAF)-induced mortality
The experiment was carried out by a minor modification of a known method [Br. J. Pharmacol., 79, 595 (1983)]. Groups each consisting of 10 male dd mice (weighing 28 to 32 g) were used, and 50 or 100 mg/kg of the test compound or a saline (control) was orally administered. One hour after the administration of test compound, 40 μg/kg of PAF (manufactured by Avanti Polar Lipids Co., Ltd.) was intravenously administered. Three hours after PAF injection, the mortality of the animals was observed.

Turning to `CCn1cnc2c3cccnc3n(-c3ccccc3)c(=O)c21` [Compound 8, 3-Ethyl-5-phenyl-3H-imidazo[4,5-c][1,8]naphthyridin-4(5H)-one], in data set [1], the IC50 came to 0.45 µM. Also, the inhibition in vivo at 100 mg/kg is 56.1% in data set [2] and 64.9% in data set [3]. Also, the “MLD (Minimum Lethal Dose) i.p.” value in data set [4] was above 50 mg/kg. For the same molecule, in data set [4], the “MLD (Minimum Lethal Dose) p.o.” value is above 50 mg/kg. Moreover, in data set [5], the responders at 100 mg/kg turned out to be 70%.

For `CCCn1cnc2c3cccnc3n(-c3ccccc3)c(=O)c21` [Compound 9, 5-Phenyl-3-n-propyl-3H-imidazo[4,5-c][1,8]naphthyridin-4(5H)-one], the IC50 in data set [1] was determined as 6.5 µM. Moreover, in data set [2], the inhibition in vivo at 100 mg/kg was 52.4%. The inhibition in vivo at 25 mg/kg in data set [3] worked out at 61.2%. Moreover, in data set [4], the “MLD (Minimum Lethal Dose) i.p.” value was above 100 mg/kg and the “MLD (Minimum Lethal Dose) p.o.” value is above 100 mg/kg. The responders at 100 mg/kg in data set [5] was 100%.

Regarding `CC(C)n1cnc2c3cccnc3n(-c3ccccc3)c(=O)c21` [Compound 10, 3-Isopropyl-5-phenyl-3H-imidazo[4,5-c][1,8]naphthyridin-4(5H)-one], the IC50 in data set [1] was determined as 6 µM. Also, the inhibition in vivo at 100 mg/kg in data set [2] came to 43.1%. Besides, the inhibition in vivo at 100 mg/kg in data set [3] came out at 53%. Besides, in data set [4], the “MLD (Minimum Lethal Dose) i.p.” value is on record as above 100 mg/kg and the “MLD (Minimum Lethal Dose) p.o.” value was above 100 mg/kg. Also, the responders at 100 mg/kg in data set [5] was 80%.

For the molecule `CCCCn1cnc2c3cccnc3n(-c3ccccc3)c(=O)c21` [Compound 11, 3-n-Butyl-5-phenyl-3H-imidazo[4,5-c][1,8]naphthyridin-4(5H)-one], in data set [1], the IC50 was above 10 µM. Moreover, the inhibition in vivo at 100 mg/kg in data set [2] was found to be 56.4%. In addition, the inhibition in vivo at 25 mg/kg in data set [3] stood at 55.5%. Further, in data set [4], the “MLD (Minimum Lethal Dose) i.p.” value was above 100 mg/kg and the “MLD (Minimum Lethal Dose) p.o.” value was above 200 mg/kg. Besides, in data set [5], the responders at 100 mg/kg is 100%.

`CC(C)Cn1cnc2c3cccnc3n(-c3ccccc3)c(=O)c21` [Compound 12, 3-Isobutyl-5-phenyl-3H-imidazo[4,5-c][1,8]naphthyridin-4(5H)-one]: the IC50 in data set [1] was 8.5 µM. For the same molecule, the inhibition in vivo at 100 mg/kg in data set [2] turned out to be 48.5%. In data set [3], the inhibition in vivo at 25 mg/kg amounted to 69.7%. Also, in data set [4], the “MLD (Minimum Lethal Dose) i.p.” value was above 50 mg/kg and the “MLD (Minimum Lethal Dose) p.o.” value is given as above 200 mg/kg. Also, the responders at 100 mg/kg in data set [5] was found to be 100%.

On to `O=c1c2c(ncn2Cc2ccccc2)c2cccnc2n1-c1ccccc1` [Compound 13, 3-Benzyl-5-phenyl-3H-imidazo[4,5-c][1,8]naphthyridin-4(5H)-one], for which, in data set [1], the IC50 came out at 1.3 µM. The inhibition in vivo at 100 mg/kg in data set [2] was 58.1%. Also, the inhibition in vivo at 100 mg/kg in data set [3] was found to be 65.1%. In data set [4], the “MLD (Minimum Lethal Dose) i.p.” value is on record as above 100 mg/kg and the “MLD (Minimum Lethal Dose) p.o.” value is reported as above 300 mg/kg. The responders at 100 mg/kg in data set [5] was found to be 90%.

Consider `CC(=O)Cn1cnc2c3cccnc3n(-c3ccccc3)c(=O)c21` [Compound 14, 3-(2-Oxopropyl)-5-phenyl-3H-imidazo[4,5-c][1,8]naphthyridin-4(5H)-one], for which, in data set [1], the IC50 amounted to 5.8 µM. In addition, the inhibition in vivo at 100 mg/kg in data set [2] came to 44%. Moreover, the inhibition in vivo at 25 mg/kg in data set [3] stood at 53.7%. In data set [4], the “MLD (Minimum Lethal Dose) i.p.” value was above 100 mg/kg and the “MLD (Minimum Lethal Dose) p.o.” value is listed as above 100 mg/kg. The responders at 100 mg/kg in data set [5] is 100%.

In the case of `O=c1c2c(ncn2CCc2ccccc2)c2cccnc2n1-c1ccccc1` [Compound 15, 3-Phenethyl-5-phenyl-3H-imidazo[4,5-c][1,8]naphthyridin-4(5H)-one], the IC50 in data set [1] worked out at 8.1 µM. For the same molecule, the inhibition in vivo at 100 mg/kg in data set [2] came to 5.2%. In addition, the inhibition in vivo at 25 mg/kg in data set [3] is 25.7%. In data set [4], the “MLD (Minimum Lethal Dose) i.p.” value is on record as above 100 mg/kg and the “MLD (Minimum Lethal Dose) p.o.” value is above 300 mg/kg. The responders at 100 mg/kg in data set [5] came out at 50%.

In the case of `COc1ccc(-n2c(=O)c3[nH]cnc3c3cccnc32)cc1` [Compound 22, 5-(4-Methoxy)phenyl-3H-imidazo[4,5-c][1,8]naphthyridin-4(5H)-one], the IC50 in data set [1] was above 10 µM. Also, the inhibition in vivo at 100 mg/kg in data set [2] worked out at 1.9%; in data set [3], 0%. In addition, the responders at 100 mg/kg in data set [5] was 30%.

Consider `COc1cccc(-n2c(=O)c3[nH]cnc3c3cccnc32)c1` [Compound 23, 5-(3-Methoxy)phenyl-3H-imidazo[4,5-c][1,8]naphthyridin-4(5H)-one], for which, in data set [1], the IC50 was above 10 µM. For the same molecule, the inhibition in vivo at 100 mg/kg in data set [2] worked out at 0%. Further, the inhibition in vivo at 25 mg/kg in data set [3] came to 18.1%. Moreover, the responders at 100 mg/kg in data set [5] was 10%.

With `CCCCn1c(=O)c2c(ncn2C)c2cccnc21` [Compound 28, 5-n-Butyl-3-methyl-3H-imidazo[4,5-c][1,8]naphthyridin-4(5H)-one], the IC50 in data set [1] was 4.5 µM. Also, in data set [2], the inhibition in vivo at 100 mg/kg was found to be 20.6%. Further, the inhibition in vivo at 25 mg/kg in data set [3] turned out to be 26.7%. For the same molecule, the responders at 100 mg/kg in data set [5] worked out at 70%.

As for `CCCCn1c(=O)c2c(ncn2CCC)c2cccnc21` [Compound 29, 5-n-Butyl-3-n-propyl-3H-imidazo[4,5-c][1,8]naphthyridin-4(5H)-one], the IC50 in data set [1] stood at 0.29 µM. Also, the inhibition in vivo at 100 mg/kg in data set [2] was 56.1%. Also, the inhibition in vivo at 25 mg/kg in data set [3] was found to be 21.1%. In data set [4], the “MLD (Minimum Lethal Dose) i.p.” value is recorded as above 100 mg/kg and the “MLD (Minimum Lethal Dose) p.o.” value is recorded as above 100 mg/kg. Also, in data set [5], the responders at 100 mg/kg stood at 100%.

With `CCOCCn1cnc2c3cccnc3n(-c3ccccc3)c(=O)c21` [Compound 31, 3-(Ethoxyethyl)-5-phenyl-3H-imidazo[4,5-c][1,8]naphthyridin-4(5H)-one], the IC50 in data set [1] is 0.13 µM. In addition, the inhibition in vivo at 100 mg/kg in data set [2] worked out at 60.6%. For the same molecule, in data set [3], the inhibition in vivo at 25 mg/kg amounted to 57.4%. For the same molecule, in data set [4], the “MLD (Minimum Lethal Dose) i.p.” value is recorded as above 100 mg/kg and the “MLD (Minimum Lethal Dose) p.o.” value was above 300 mg/kg. Moreover, the responders at 100 mg/kg in data set [5] stood at 90%.

Take `C=CCn1cnc2c3cccnc3n(-c3ccccc3)c(=O)c21` [Compound 33, 3-(2-propenyl)-5-phenyl-3H-imidazo[4,5-c][1,8]naphthyridin-4(5H)-one]: the IC50 in data set [1] is 0.0071 µM. The inhibition in vivo at 50 mg/kg in data set [2] came to 67.8%. The inhibition in vivo at 25 mg/kg in data set [3] amounted to 67.3%. Moreover, in data set [4], the “MLD (Minimum Lethal Dose) i.p.” value is above 100 mg/kg and the “MLD (Minimum Lethal Dose) p.o.” value is above 300 mg/kg. Further, the responders at 100 mg/kg in data set [5] worked out at 100%.

Turning to `O=c1c2c(ncn2CC2CCCCC2)c2cccnc2n1-c1ccccc1` [Compound 37, 3-Cyclohexylmethyl-5-phenyl-3H-imidazo[4,5-c][1,8]naphthyridin-4(5H)-one], the IC50 in data set [1] was determined as 6.2 µM. Moreover, the inhibition in vivo at 50 mg/kg in data set [2] is 34.7%. For the same molecule, the inhibition in vivo at 25 mg/kg in data set [3] turned out to be 49.8%. Also, the responders at 100 mg/kg in data set [5] was 90%.

Consider `Cc1cccc(Cn2cnc3c4cccnc4n(-c4ccccc4)c(=O)c32)c1` [Compound 41, 3-(3-Methylphenyl)methyl-5-phenyl-3H-imidazo[4,5-c][1,8]naphthyridin-4(5H)-one], for which the IC50 in data set [1] turned out to be 10 µM. Besides, in data set [2], the inhibition in vivo at 100 mg/kg stood at 47.7%. Moreover, in data set [3], the inhibition in vivo at 25 mg/kg worked out at 33.3%. In data set [5] (50 mg/kg p.o., n = 10, control group survival 0%), the responders at 50 mg/kg turned out to be 80%.
